Legend:
Format in all cases: cell-based
A549-L = experiment: Inhibition of cell proliferation, A549-L; conditions: lung; 72 h; methylene blue or CellTiter-Glo
Protocol: (§1) II. Inhibition of Cell Proliferation by PLK1 Inhibitors.
(§2) Exponentially growing cell lines of different tumor origins, cultured in appropriate media containing 10% fetal bovine serum at 37° C. in a 5% CO2 incubator were plated in 96 or 384-well plates. Twenty four hours post-plating, cells were treated with different concentrations of test compounds ranging from 20 μM to 0.04 nM. Several wells were left untreated as a control. Seventy two hours post-treatment, cell numbers were determined using different techniques; 100 μl per well of methylene blue (Sigma M9140) (0.5% in 50:50 Ethanol:water), or 10-100 μl per well of CellTiter-Glo (Promega #G7573), depending on well size. For methylene blue staining, stain was incubated at room temperature for 30 minutes before plates were rinsed and dye solubilized in 1% N-lauroyl sarcosine, sodium salt, (Sigma L5125, in PBS). Plates were read on a microplate reader, measuring the OD at 620 nm. For CellTiter-Glo, plates were incubated at room temperature for 15 minutes and the chemiluminescent signal was read on the Victor V or Envison 2100 reader.
(§3) Percent inhibition of cell growth was expressed as percent proliferation relative to 100% proliferation (control). Concentration of test compound that inhibited 50% of cell growth (IC50) was determined by 4 parameter fit of data using XLfit, (value of no cell control was substracted from all samples for background). The data are shown in Table 1 and Table 2 below and represent a compilation of several different experiments each performed using the general parameters outlined above, although minor variations may have been employed in some instances, in Table 1 and Table 2, +=IC50>1 μM; ++=IC50 0.5-1 μM: +++=IC50<0.5 μM.

COLO205 = experiment: Inhibition of cell proliferation, COLO205; conditions: Homo sapiens, COLO 205; Colon; 72 h; methylene blue or CellTiter-Glo
Protocol: as §1, §2, §3

HT29 = experiment: Inhibition of cell proliferation, HT29; conditions: Homo sapiens, HT-29; Colon; 72 h; methylene blue or CellTiter-Glo
Protocol: as §1, §2, §3

SKOV-3 = experiment: Inhibition of cell proliferation, SKOV-3; conditions: Homo sapiens, SK-OV-3; Ovarian; 72 h; methylene blue or CellTiter-Glo
Protocol: as §1, §2, §3

P388 = experiment: Inhibition of cell proliferation, P388; conditions: Mouse leukemia, 72 h, methylene blue or CellTiter-Glo
Protocol: as §1, §2, §3

HN5 = experiment: Inhibition of cell proliferation, HN5; conditions: 72 h
Protocol: as §1, §2, §3

MCF7 = experiment: Inhibition of cell proliferation, MCF7; conditions: Homo sapiens, Breast, 72 h, methylene blue or CellTiter-Glo
Protocol: as §1, §2
(§4) Percent inhibition of cell growth was expressed as percent proliferation relative to 100% proliferation (control). […]

MDA-MB-468 = experiment: Inhibition of cell proliferation, MDA-MB-468; conditions: Homo sapiens, Breast, 72 h, methylene blue or CellTiter-Glo
Protocol: as §1, §2, §4

PANC-1 = experiment: Inhibition of cell proliferation, PANC-1; conditions: Homo sapiens, pancreatic, 72 h, methylene blue or CellTiter-Glo
Protocol: as §1, §2, §4

MiaPaca = experiment: Inhibition of cell proliferation, MiaPaca; conditions: Homo sapiens, MIA PaCa-2; Pancreatic; 72 h; methylene blue or CellTiter-Glo
Protocol: as §1, §2, §4

RPMI 8226 = experiment: Inhibition of cell proliferation, RPMI 8226; conditions: Homo sapiens, leukemia, 72 h, methylene blue or CellTiter-Glo
Protocol: as §1, §2, §4

Saos-2 = experiment: Inhibition of cell proliferation, Saos-2; conditions: Homo sapiens, bone, 72 h, methylene blue or CellTiter-Glo
Protocol: as §1, §2, §4

U87-MG = experiment: Inhibition of cell proliferation, U87-MG; conditions: Homo sapiens, U-87 MG; brain; 72 h; methylene blue or CellTiter-Glo
Protocol: as §1, §2, §4

HCC1937 = experiment: Inhibition of cell proliferation, HCC1937; conditions: Homo sapiens, breast, 72 h, methylene blue or CellTiter-Glo
Protocol: as §1, §2, §4

HCC1954 = experiment: Inhibition of cell proliferation, HCC1954; conditions: Homo sapiens, breast, 72 h, methylene blue or CellTiter-Glo
Protocol: as §1, §2, §4

SK-BR-3 = experiment: Inhibition of cell proliferation, SK-BR-3; conditions: Homo sapiens, breast, 72 h, methylene blue or CellTiter-Glo
Protocol: as §1, §2, §4

HCT-15 = experiment: Inhibition of cell proliferation, HCT-15; conditions: Homo sapiens, colon, 72 h, methylene blue or CellTiter-Glo
Protocol: as §1, §2, §4

LoVo = experiment: Inhibition of cell proliferation, LoVo; conditions: Homo sapiens, colon, 72 h, methylene blue or CellTiter-Glo
Protocol: as §1, §2, §4

A498 = experiment: Inhibition of cell proliferation, A498; conditions: Homo sapiens, kidney, 72 h, methylene blue or CellTiter-Glo
Protocol: as §1, §2, §4

NCI-H358 = experiment: Inhibition of cell proliferation, NCI-H358; conditions: Homo sapiens, lung, 72 h, methylene blue or CellTiter-Glo
Protocol: as §1, §2, §4

Capan-2 = experiment: Inhibition of cell proliferation, Capan-2; conditions: Homo sapiens, pancreas, 72 h, methylene blue or CellTiter-Glo
Protocol: as §1, §2, §4

Panc 02.03 = experiment: Inhibition of cell proliferation, Panc 02.03; conditions: Homo sapiens, pancreas, 72 h, methylene blue or CellTiter-Glo
Protocol: as §1, §2, §4

BC-2 = experiment: Inhibition of cell proliferation, BC-2; conditions: peripheral blood, 72 h, methylene blue or CellTiter-Glo
Protocol: as §1, §2, §4

CA46 = experiment: Inhibition of cell proliferation, CA46; conditions: Homo sapiens, peripheral blood, 72 h, methylene blue or CellTiter-Glo
Protocol: as §1, §2, §4

CEM/C1 = experiment: Inhibition of cell proliferation, CEM/C1; conditions: peripheral blood, 72 h, methylene blue or CellTiter-Glo
Protocol: as §1, §2, §4

EB-3 = experiment: Inhibition of cell proliferation, EB-3; conditions: Homo sapiens, peripheral blood, 72 h, methylene blue or CellTiter-Glo
Protocol: as §1, §2, §4

SKMEL28 = experiment: Inhibition of cell proliferation, SKMEL28; conditions: Homo sapiens, SK-MEL-28; skin; 72 h; methylene blue or CellTiter-Glo
Protocol: as §1, §2, §4

SKMEL5 = experiment: Inhibition of cell proliferation, SKMEL5; conditions: Homo sapiens, SK-MEL-5; skin; 72 h; methylene blue or CellTiter-Glo
Protocol: as §1, §2, §4

MALME-3M = experiment: Inhibition of cell proliferation, MALME-3M; conditions: Homo sapiens, skin, derived from lung, 72 h, methylene blue or CellTiter-Glo
Protocol: as §1, §2, §4

T24 = experiment: Inhibition of cell proliferation, T24; conditions: Homo sapiens, T-24; urinary bladder; 72 h; methylene blue or CellTiter-Glo
Protocol: as §1, §2, §4

Measured: IC50

C[C@@H](Oc1cc(-n2cnc3cc(-c4cnn(C)c4)ccc32)sc1C(N)=O)c1cccc(OC2CCN(C)CC2)c1Cl [Example 48]
> 1 µM: HCC1937 | Capan-2 | BC-2 | SKMEL28 | MALME-3M
< 0.5 µM: A549-L | COLO205 | HT29 | SKOV-3 | P388 | HN5; Homo sapiens, Head and neck, Table 2 first HN5 line | HN5; head/neck, Table 2 second HN5 line | MCF7 | MDA-MB-468 | PANC-1 | MiaPaca | RPMI 8226 | Saos-2 | U87-MG | HCC1954 | SK-BR-3 | HCT-15 | LoVo | A498 | NCI-H358 | Panc 02.03 | CA46 | CEM/C1 | EB-3 | SKMEL5 | T24

From patent US20100075960A1 (priority 2006, published 2010)
